Several values for one entry are separate records, joined by “and”; a condition that tells them apart may be missing. Identical values can stand only once.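 Values below derive from 48-hour exposures of cells grown in 96-well plates, with endpoints linearly interpolated between the two concentrations bracketing the appropriate inhibition level. At the GI50, growth is halved. The concentration for full growth arrest is given as TGI.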
Tests used:
Experiment in all cases: NCI tumour cell line growth inhibition, 48 h
HCT-116 colon = tested on: HCT-116 colon
COLO 205 colon = tested on: COLO 205 colon
A498 renal = tested on: A498 renal
UO-31 renal = tested on: UO-31 renal
LOX IMVI melanoma = tested on: LOX IMVI melanoma
MCF7 breast = tested on: MCF7 breast
OVCAR-5 ovarian = tested on: OVCAR-5 ovarian
SR leukemia = tested on: SR leukemia
DU-145 prostate = tested on: DU-145 prostate
HOP-92 NSCLC = tested on: HOP-92 NSCLC

Structure (SMILES)	GI50 (HCT-116 colon)	TGI (HCT-116 colon)	GI50 (COLO 205 colon)	TGI (COLO 205 colon)	GI50 (A498 renal)	TGI (A498 renal)	GI50 (UO-31 renal)	TGI (UO-31 renal)	GI50 (LOX IMVI melanoma)	TGI (LOX IMVI melanoma)	GI50 (MCF7 breast)	TGI (MCF7 breast) [µM]	GI50 (OVCAR-5 ovarian)	TGI (OVCAR-5 ovarian)	GI50 (SR leukemia)	TGI (SR leukemia)	GI50 (DU-145 prostate)	TGI (DU-145 prostate) [µM]	GI50 (HOP-92 NSCLC)	TGI (HOP-92 NSCLC)
COc1cc(C(=O)N2CCN(c3ncnc4ccccc34)CC2)c(N)cc1OCc1ccccc1	10.7 µM	22.6 µM	5.14 µM	20.2 µM	5.47 µM	19.2 µM	12 µM	26.5 µM	12.2 µM	24.6 µM	8.29 µM	22.7	15.3 µM	31.5 µM	4.11 µM	15.9 µM	7.21 µM	19.9	15.4 µM	36.3 µM
O=C(O)C1(C(=O)O)CCC1.[NH2-].[NH2-].[Pt+2]	176 µM and 196 µM	232 µM and > 250 µM	224 µM and > 250 µM	> 250 µM	224 µM and 154 µM	248 µM and > 250 µM	167 µM and 84.1 µM	> 242 µM	70.2 µM and 70.7 µM	211 µM and 175 µM	137 µM and 248 µM	> 250	233 µM and > 250 µM	> 250 µM	94.6 µM	> 230 µM	121 µM and 94.6 µM	> 250	125 µM and 106 µM	222 µM and 246 µM
C/C1=C/C(=O)O[C@@H]2C[C@@H](CC[C@H](C)/C=C\C=C\CC1)O[C@@](O)([C@@H]1CSC(=O)N1)C2		> 10 µM		0.36 µM		0.358 µM		1.25 µM		> 3.88 µM		> 10		> 10 µM		> 10 µM		> 10		0.356 µM
[N-]=[N+]=NCCCCCC(=O)OC(C(=O)c1ccccc1)c1cccc(OCC(=O)NCCOCCOCCNC(=O)CCCC[C@@H]2SC[C@@H]3NC(=O)N[C@@H]32)c1 (stereo partly drawn)	67.2 µM	> 100 µM	> 100 µM	> 100 µM	> 100 µM	> 100 µM	> 100 µM	> 100 µM	18.5 µM	44.5 µM	51.3 µM	> 100	> 100 µM	> 100 µM	22.6 µM	60 µM	> 100 µM	> 100	34.9 µM	> 100 µM
NCCOCCOCCNc1nc(-c2ccccc2)nc(N2CCN(c3ccccn3)CC2)n1	10 µM	22.6 µM	6.35 µM	21.1 µM	3.91 µM	18.4 µM	12.7 µM	25.8 µM	8.3 µM	21.3 µM	12.5 µM	32.2	16.1 µM	30.4 µM	1.62 µM	4.64 µM	15.2 µM	28.7	1.84 µM	11.1 µM
COc1cc(NCCCN=C(N)NC(N)=NC(C)C)c2ncccc2c1	3.31 µM	30.3 µM	0.195 µM	1.92 µM	36.6 µM	> 88.8 µM	> 97.1 µM	> 100 µM	11.8 µM	42.9 µM		0.0718	12.8 µM	43.3 µM	7.71 µM	45.8 µM	33.9 µM	> 100	2.54 µM	26.5 µM
Cc1nc(-c2cn3c(n2)-c2ccc(-c4cnn(C(C)(C)C(N)=O)c4)cc2OCC3)n(C(C)C)n1	1.2 µM and 0.399 µM	23.4 µM and > 10 µM	0.109 µM and 0.203 µM	16.6 µM and > 10 µM	0.143 µM and 0.274 µM	1.15 µM and 1.67 µM	0.185 µM and 0.14 µM	15.3 µM and > 8.44 µM	0.279 µM and 0.74 µM	17.7 µM and > 10 µM	< 0.01 µM and 0.00991 µM	> 50.5	0.17 µM and 0.976 µM	32.3 µM and > 10 µM	4.97 µM and 8.69 µM	26.1 µM and > 10 µM	1.72 µM and 2.15 µM	> 100	0.0211 µM and 0.0253 µM	

Source: PubChem BioAssay (NCI)
